From patent US20200063169A1, “METHODS AND COMPOSITIONS FOR THE PRODUCTION OF LIPIDS” (THE UNIVERSITY OF BRITISH COLUMBIA, priority 2017, published 2020)

Key:
FcrA [1] = assay: FcrA activity assays (spectrophotometric, NADPH oxidation / DTNB); format: biochemical, Rhodococcus jostii RHA1; settings: for Specific Activity: 5 μM acyl-CoA, 200 μM NADPH, pH 7.0, 25° C.
Method: FcrA activity was evaluated using two spectrophotometric assays. Assays were performed at 25° C. in 1 mL 20 mM MOPS, 80 mM NaCl, pH 7.0 (I=0.1 M) containing 5 μM acyl-CoA and 200 μM NADPH. Reactions were initiated by the addition of FcrA to a final concentration of 0.5 to 2 μM. In one assay, the oxidation of NADPH was followed at 340 nm (E=6.3 mM mM^−1 cm^−1 [43]). In the second assay, the reaction mixture also contained 0.1 mg/mL DTNB, and the formation of NTB^2− was followed at 412 nm (E=14.15 mM^−1 cm^−1 for NTB^2−[44]). Reaction rates were calculated from progress curves using Cary WinUV Kinetics Application (Agilent). The pH-dependence of the reaction was evaluated using the DTNB assay and a series of 20 mM Good's buffers (MES, MOPS, HEPPS, or TAPS), 80 mM NaCl (I=0.1 M), pH 6 to 9.
Because related two-domain enzymes completely reduce acyl-CoAs to fatty alcohols and have been used in biotechnology applications, further efforts were focused on exploring the function of FcrA, To investigate the activity of FcrA, it was first produced as a C-terminally His-tagged protein in RHA1 and purified to greater than 95% apparent homogeneity (FIG. 4A). The molecular mass of FcrA-His6 was 73627 Da, which corresponds to the mass of the protein (73758 Da) less the N-terminal methionine (131 Da). Then, to evaluate the ability of FcrA to catalyze the formation of fatty alcohols, 1.4 μM FcrA was incubated with 400 μM NADPH and 100 μM oleoyl-CoA in 1 mL 20 mM Tris-HCl, pH 7.0, 50 mM NaCl for 20 h at room temperature. The reaction was quenched with 1 mL saturated NaCl and 100 μM of tetradecanol was added as a standard. […] No alcohol was detected in control reactions in which FcrA was omitted. […] As with previously characterized FARs, activity was maximal at pH 7.0. […] Among the tested substrates, FcrA had highest specific activity for stearoyl-CoA (C18-CoA), reducing it at a rate of 45±3 nmol/mg·min. The specific activity of FcrA dropped off with decreasing chain length of the acyl-CoA substrate (Table 2).

FcrA [2] = assay: FcrA fatty alcohol formation, reaction products analysed by GC/MS; format: biochemical, Rhodococcus jostii RHA1; settings: 1.4 μM FcrA, 400 μM NADPH, 100 μM oleoyl-CoA, pH 7.0, 20 h, room temperature
Method: To analyze fatty alcohols produced in vitro, quenched reactions of 2 mL were extracted with 5 mL of 2:1 chloroform:methanol (v/v). The organic phase was collected, washed once with 1:1 H2O:methanol, and three times with H2O. The organic phase was removed and dried under nitrogen stream. The extract was suspended in pyridine and derivatized with […] for 1 h at 60° C. Derivatized extracts were analyzed by gas chromatography-mass spectrometry (GC/MS) as described below.
Analyses were performed using an Agilent 6890n gas chromatograph system fitted with an HP-5 MS 30 m×0.25 mm capillary column (Hewlett-Packard) and an Agilent 5973n mass-selective detector. […] WEs were further identified by comparison to an authentic stearyl stearate standard and were quantified using a standard curve generated using palmityl myristate (Nu-Chek Prep).
Because related two-domain enzymes completely reduce acyl-CoAs to fatty alcohols and have been used in biotechnology applications, further efforts were focused on exploring the function of FcrA, To investigate the activity of FcrA, it was first produced as a C-terminally His-tagged protein in RHA1 and purified to greater than 95% apparent homogeneity (FIG. 4A). […] No alcohol was detected in control reactions in which FcrA was omitted. […]

Compound | Specific Activity (FcrA [1]; FcrA with acyl-CoA substrate) | further results
NC(=O)C1=CN([C@@H]2O[C@H](COP(=O)(O)OP(=O)(O)OC[C@H]3O[C@@H](n4cnc5c(N)ncnc54)[C@H](O)[C@@H]3O)[C@@H](O)[C@H]2O)C=CC1 [NADH] | – | FcrA activity with cofactor in place of NADPH (FcrA [1]; NADPH substituted with NADH): no activity was detected
CCCCCCCCCCCCCCCC(=O)SCCNC(=O)CCNC(=O)[C@H](O)C(C)(C)COP(=O)(O)OP(=O)(O)OC[C@H]1O[C@@H](n2cnc3c(N)ncnc32)[C@H](O)[C@@H]1OP(=O)(O)O [Palmitoyl-CoA] | 7.0 ± 0.1 nmol/min/(mg protein) | –
CCCCCCCC/C=C\CCCCCCCC(=O)SCCNC(=O)CCNC(=O)[C@H](O)C(C)(C)COP(=O)(O)OP(=O)(O)OC[C@H]1O[C@@H](n2cnc3c(N)ncnc32)[C@H](O)[C@@H]1OP(=O)(O)O [Oleoyl-CoA] | 41 ± 1 nmol/min/(mg protein) | conversion of acyl-CoA to fatty alcohol by FcrA (FcrA [2]): converted oleoyl-CoA to oleyl alcohol; rate of reduction by FcrA compared with stearoyl-CoA (FcrA [1]; monounsaturated acyl-CoA substrate): reduced at a similar rate to stearoyl-CoA
CCCCCCCCCCCCCCCCCC(=O)SCCNC(=O)CCNC(=O)[C@H](O)C(C)(C)COP(=O)(O)OP(=O)(O)OC[C@H]1O[C@@H](n2cnc3c(N)ncnc32)[C@H](O)[C@@H]1OP(=O)(O)O [Stearoyl-CoA] | 45 ± 3 nmol/min/(mg protein) | specific activity (rate of reduction by FcrA) (FcrA [1]; FcrA with acyl-CoA substrate): 45 ± 3 nmol/mg/min
CCCCCCCCCCCC(=O)SCCNC(=O)CCNC(=O)[C@H](O)C(C)(C)COP(=O)(O)OP(=O)(O)OC[C@H]1O[C@@H](n2cnc3c(N)ncnc32)[C@H](O)[C@@H]1OP(=O)(O)O [Lauroyl-CoA] | 1.5 ± 0.3 nmol/min/(mg protein) | –
